The values that follow are results of earlier work, collected in publication PMC3499999, “Advances in the Treatment of Malaria” (Mediterranean Journal of Hematology and Infectious Diseases, 2012).

Details of data set [1]: method as in PMID 10661809. As to conditions: high intramuscular doses, oil-based, beagle dogs.
Details of data set [2]: method as in PMID 20863871. As to conditions: animals, only for long drug exposure; artemether and arteether intramuscularly, artelinic acid orally.
The conditions of data set [3]: in vivo.
Details of data set [4]: method as in PMID 17461742.
Data set [5] has as its system P. falciparum. Set-up: method as in earlier work. As to conditions: 3-days course.
Test in data set [6]: not given
The source holds these as a separate data set.

The subject of data set [7] is severe malaria. As to conditions: artesunate versus quinine, systematic reviews, regardless of age and geographic differences.
On the set-up of data set [8]: method as in PMID 22540954.
In data set [9] the test system is severe malaria. Set-up: method as in PMID 19059639. As to conditions: rectal, over placebo, p=0.0013.

As for `CCO[C@H]1O[C@@H]2O[C@@]3(C)CC[C@H]4[C@H](C)CC[C@@H]([C@H]1C)[C@@]24OO3` [arteether], the QTc prolongation entry in data set [1] is recorded as “reported at significant level”. Also, in data set [2], the neurotoxicity entry is given as “Fatal neurotoxicity”.

Consider `C[C@H]1[C@@H](OCc2ccc(C(=O)O)cc2)O[C@@H]2O[C@@]3(C)CC[C@H]4[C@H](C)CC[C@@H]1[C@@]24OO3` [artelinic acid], for which, in data set [2], the neurotoxicity entry was “Fatal neurotoxicity”. Turning to Atovaquone-proguanil, the “risk of birth defects relative to the general population” value in [3] is listed as not above 3 times.

Take `COc1cc(NC(C)CCCN/C(C)=C2\CCOC2=O)c2ncccc2c1` (stereo not drawn) [buloquine]: the “oxidative toxicity compared with primaquine” value is recorded as “less oxidative toxicity”.

As to `COc1cc(C)c2c(Oc3cccc(C(F)(F)F)c3)c(OC)cc(NC(C)CCCN)c2n1` (stereo not drawn) [tefenoquine, tafenoquine], the “half-life compared with primaquine” value in data set [4] is “longer half-life”. For the compound `C[C@@H]1CC[C@H]2[C@@H](C)C(=O)O[C@@H]3O[C@@]4(C)CC[C@@H]1[C@]32OO4` [artemisinin], in [5], the “reduction of parasite burden” value is recorded as 90%. As to `CO[C@H]1O[C@@H]2O[C@@]3(C)CC[C@H]4[C@H](C)CC[C@@H]([C@H]1C)[C@@]24OO3` [artemether], in data set [6], the half-life (as a rule, the time needed for the level to fall by half in the phase considered) was 2 to 4 h. Moreover, the QTc prolongation result in data set [1] was “reported at significant level”. The neurotoxicity result in data set [2] was “Fatal neurotoxicity”. As to `C[C@H]1[C@H](OC(=O)CCC(=O)O)O[C@@H]2O[C@@]3(C)CC[C@H]4[C@H](C)CC[C@@H]1[C@@]24OO3` [artesunate], the half-life in data set [6] is less than 1 h. Further, in data set [7], the “case fatality rate, RR” value was 0.71. Besides, the “median elimination T ½” value in data set [8] was 0.25 [0.11 – 1.82] hours. Moreover, the “death or permanent disability, RR” value in data set [9] is 0.49.

As to `COc1cc(NC(C)CCCN)c2ncccc2c1` (stereo not drawn) [primaquine], the main safety concern result (patients with glucose-6-phosphate dehydrogenase deficiency) was “risk of severe intravascular haemolysis”.
